How the values were obtained:
[1] = target: T1, ETA (rabbit renal artery vascular smooth muscle cells) (Oryctolagus cuniculus, UniProt A5A8K3); type: binding; settings: [125I]-ET-1 40 pM, 2 hours at 37° C.; read-out: ERBA-A IC50 (converted)
T1 construct: rabbit renal artery vascular smooth muscle cells (ERBA-A); endogenous in cells; host or cells: cultured rabbit renal artery vascular smooth muscle cells (membranes)
T1 sequence (A5A8K3 21-427): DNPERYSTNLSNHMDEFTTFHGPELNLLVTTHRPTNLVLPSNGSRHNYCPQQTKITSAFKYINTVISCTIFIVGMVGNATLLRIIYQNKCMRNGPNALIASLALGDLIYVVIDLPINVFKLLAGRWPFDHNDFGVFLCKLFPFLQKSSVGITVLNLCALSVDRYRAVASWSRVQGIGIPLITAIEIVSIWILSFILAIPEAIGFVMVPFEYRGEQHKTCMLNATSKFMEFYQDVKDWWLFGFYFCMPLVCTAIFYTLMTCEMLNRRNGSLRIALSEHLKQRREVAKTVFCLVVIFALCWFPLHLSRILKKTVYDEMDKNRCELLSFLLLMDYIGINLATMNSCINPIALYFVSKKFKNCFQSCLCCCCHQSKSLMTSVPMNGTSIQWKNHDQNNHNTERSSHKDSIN
Procedure: The compounds of Formula I are valuable antagonists of endothelin. […] Membranes were prepared from cultured cells by lysing cells in cold lysis buffer (5 mM HEPES, 2 mM EDTA, pH 7.4) and homogenizing with a Dounce "A" homogenizer. The homogenate was centrifuged at 30,000×g for 20 min at 4° C. […] Radioligand and competing ligands were prepared in binding buffer containing 20 mM Tris, 2 mM EDTA, and 0.1% BSA. Competing binding assays were initiated by combining membranes, [125I]-ET-1 (40 pM) and the competing ligand in a final volume of 250 uL and incubating for 2 hours at 37° C.

recombinant human ETA R = target: T2, recombinant human ETA R (Homo sapiens, UniProt P25101); type: binding; settings: [125I]-ET-1 40 pM, 2 hours at 37° C., Ltk- cells, read-out: HERBA-A IC50
T2 construct: expressed in transfected cells; host or cells: Ltk- cells (membranes)
T2 sequence (P25101 21-427): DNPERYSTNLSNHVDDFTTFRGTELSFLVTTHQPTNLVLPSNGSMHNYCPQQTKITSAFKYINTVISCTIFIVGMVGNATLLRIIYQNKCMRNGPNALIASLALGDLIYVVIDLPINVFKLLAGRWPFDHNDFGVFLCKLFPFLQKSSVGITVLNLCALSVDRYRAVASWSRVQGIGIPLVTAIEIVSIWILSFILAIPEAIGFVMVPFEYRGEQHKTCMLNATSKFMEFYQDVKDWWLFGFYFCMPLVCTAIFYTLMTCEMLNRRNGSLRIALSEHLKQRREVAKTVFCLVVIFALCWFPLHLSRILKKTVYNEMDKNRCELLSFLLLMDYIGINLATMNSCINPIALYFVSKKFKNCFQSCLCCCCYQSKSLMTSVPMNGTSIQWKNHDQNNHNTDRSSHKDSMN
Procedure: (§1) Membranes were prepared from cultured cells by lysing cells in cold lysis buffer (5 mM HEPES, 2 mM EDTA, pH 7.4) and homogenizing with a Dounce "A" homogenizer. The homogenate was centrifuged at 30,000×g for 20 min at 4° C. […] Radioligand and competing ligands were prepared in binding buffer containing 20 mM Tris, 2 mM EDTA, and 0.1% BSA.

recombinant human ETB R = target: T3, recombinant human ETB R (Homo sapiens, UniProt P24530); type: binding; settings: [125I]-ET-1 40 pM, 2 hours at 37° C., CHO-K1 cells, read-out: HERBA-B IC50
T3 construct: expressed in transfected cells; host or cells: CHO-K1 cells (membranes)
T3 sequence (P24530 27-442): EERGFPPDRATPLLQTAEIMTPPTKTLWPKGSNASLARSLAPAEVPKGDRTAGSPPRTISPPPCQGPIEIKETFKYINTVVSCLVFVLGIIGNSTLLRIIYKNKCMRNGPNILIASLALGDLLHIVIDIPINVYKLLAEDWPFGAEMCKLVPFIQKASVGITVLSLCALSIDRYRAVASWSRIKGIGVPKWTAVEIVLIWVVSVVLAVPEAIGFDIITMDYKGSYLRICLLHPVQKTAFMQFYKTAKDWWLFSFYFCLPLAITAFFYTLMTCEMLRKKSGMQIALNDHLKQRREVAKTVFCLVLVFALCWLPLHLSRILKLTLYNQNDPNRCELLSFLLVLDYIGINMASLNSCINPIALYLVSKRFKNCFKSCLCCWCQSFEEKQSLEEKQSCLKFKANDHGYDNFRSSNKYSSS
Procedure: as §1

[2] = target: T4, rabbit femoral artery (ETA) (Oryctolagus cuniculus, UniProt A5A8K3); assay: In vitro antagonism of ET-1 stimulated vasoconstriction (VERA-A) in the rabbit femoral artery (ETA); type: cell-based
T4 construct: Femoral and pulmonary arteries were isolated, cleaned of connective tissue, and cut into 4-mm rings; from tissue; host or cells: rabbit femoral artery rings, endothelium denuded
T4 sequence (A5A8K3 21-427): T1 sequence (A5A8K3 21-427)
Procedure: (§2) Male New Zealand rabbits were killed by cervical dislocation and exsanguination. Femoral and pulmonary arteries were isolated, cleaned of connective tissue, and cut into 4-mm rings. The endothelium was denuded by placing the rings over hypodermic tubing (32 gauge for femoral rings and 28 gauge for pulmonary rings, Small Parts, Inc, Miami, Fla.) and gently rolling them. […] Resting tension was adjusted to 3.0 g for femoral and 4.0 g pulmonary arteries; the rings were left for 90 minutes to equilibrate.

[3] = target: T5, rabbit pulmonary artery (ETB) (Oryctolagus cuniculus, UniProt Q9N0W7); assay: Antagonism of sarafotoxin 6c stimulated vasoconstriction in the rabbit pulmonary artery (ETB) (VERA-B); type: cell-based
T5 construct: Femoral and pulmonary arteries were isolated, cleaned of connective tissue, and cut into 4-mm rings; from tissue; host or cells: rabbit pulmonary artery rings, endothelium denuded
T5 sequence (Q9N0W7 27-441): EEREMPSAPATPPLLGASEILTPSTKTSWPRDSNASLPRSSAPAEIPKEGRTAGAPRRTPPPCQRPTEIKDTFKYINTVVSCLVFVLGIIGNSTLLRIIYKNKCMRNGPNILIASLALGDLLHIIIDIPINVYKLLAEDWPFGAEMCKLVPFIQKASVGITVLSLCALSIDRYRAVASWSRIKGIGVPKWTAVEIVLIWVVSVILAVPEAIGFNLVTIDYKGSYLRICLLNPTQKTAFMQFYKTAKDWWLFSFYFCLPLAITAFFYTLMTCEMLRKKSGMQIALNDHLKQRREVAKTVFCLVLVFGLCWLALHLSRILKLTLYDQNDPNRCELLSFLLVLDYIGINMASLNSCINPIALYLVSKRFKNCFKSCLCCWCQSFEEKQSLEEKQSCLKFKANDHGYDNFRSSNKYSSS
Procedure: as §2

[4] = test system: porcine pulmonary arteries; settings: isolated, endothelium-intact porcine pulmonary arteries; cited from earlier work

Compound	IC50 [1] [nM]	IC50 (recombinant human ETA R) [nM]	IC50 (recombinant human ETB R) [nM]	IC50 [2] [nM]	IC50 [3] [nM]	vasorelaxation [4]
COc1cccc(Sc2c(C(=O)O)n(Cc3ccccc3)c3ccccc23)c1 [Example 4, 1-Benzyl-3-(3-methoxy-phenylsulfanyl)-1H-indole-2carboxylic acid]	7300	4600	1500	–	–	–
O=C(O)c1c(Sc2ccc3c(c2)OCO3)c2ccccc2n1Cc1ccc2c(c1)OCO2 [Example 5, 1-Benzo[1,3]dioxol-5-ylmethyl-3-(benzo[1,3]dioxol-5-ylsulfanyl)-1H-indole-2-carboxylic acid]	570	380	4500	–	–	–
COc1cccc(Sc2c(C(=O)O)n(Cc3cc(OC)c4c(c3)OCO4)c3cc4c(cc23)OCO4)c1 [Example 7, 5-(7-Methoxy-benzo[1,3]dioxol-5-ylmethyl)-7-(3-methoxy-phenylsulfanyl)-5H-[1,3]dioxolo[4,5-f]indole-6carboxylic acid]	–	380	2900	–	–	–
O=C(O)c1c(Sc2ccccc2)c2ccccc2n1-c1ccc2c(c1)OCO2 [Example 1, 1-Benzo-[1,3]dioxol-5-yl-3-phenylsulfanyl-1H-indole-2-carboxylic acid]	1900	3200	6500	–	–	–
COc1cc2c(Sc3ccc4c(c3)OCO4)c(C(=O)O)n(Cc3ccc4c(c3)OCO4)c2cc1OCc1ccccc1 [Example 15, 1-Benzo[1,3]dioxol-5-ylmethyl-3-(benzo[1,3]dioxol-5-ylsulfanyl)-6-benzyloxy-5-methoxy-1H-indole-2-carboxylic acid]	–	690	53	–	–	–
COc1ccc(Sc2c(C(=O)O)n(Cc3cc(OC)c4c(c3)OCO4)c3cc4c(cc23)OCO4)cc1OC [Example 9, 7-(3,4-Dimethoxy-phenylsulfanyl)-5-(7-methoxy-benzo[1,3]dioxol-5-ylmethyl)-5H-[1,3]dioxolo[4,5-f]indole-6-carboxylic acid]	–	170	420	–	–	–
COc1cccc(Sc2c(C(=O)O)n(Cc3ccc4c(c3)OCO4)c3ccccc23)c1 [Example 3, 1-Benzo[1,3]dioxol-5-ylmethyl-3-(3-methoxy-phenylsulfanyl)-1H-indole-2-carboxylic acid]	500	90	7400	–	–	–
COc1cccc(Sc2c(C(=O)O)n(Cc3ccc4c(c3)OCO4)c3cc(OC)c(OCc4ccccc4)cc23)c1 [Example 13, 1-Benzo[1,3]dioxol-5-ylmethyl-5-benzyloxy-6-methoxy-3-(3-methoxy-phenylsulfanyl)-1H-indole-2-carboxylic acid]	–	81	690	–	–	–
COc1cccc(Sc2c(C(=O)O)n(Cc3ccc(OC)cc3OCC(=O)O)c3cc(OC)c(OC)cc23)c1 [Example 16, 1-(2-Carboxymethoxy-4-methoxy-benzyl)-5,6-dimethoxy-3-(3-methoxy-phenylsulfanyl)-1H-indole-2carboxylic acid]	–	480	1200	–	–	–
COc1ccc(Cn2c(C(=O)O)c(Sc3cccc(OC)c3)c3cc(OC)c(OC)cc32)cc1 [Example 12, 5,6-Dimethoxy-1-(4-methoxy-benzyl)-3-(3-methoxy-phenylsulfanyl)-1H-indole-2-carboxylic acid]	–	160	870	–	–	–
COc1cccc(Sc2c(C(=O)O)n(Cc3cc(OC)c4c(c3)OCO4)c3cc(OC)c(OC)cc23)c1 [Example 11, 5,6-Dimethoxy-1-(7-methoxy-benzo[1,3]dioxol-5-ylmethyl)-3-(3-methoxy-phenylsulfanyl)-1H-indole-2carboxylic acid]	–	58	1100	–	–	–
COc1cc2c(Sc3cc(OC)c(OC)c(OC)c3)c(C(=O)O)n(Cc3ccc4c(c3)OCO4)c2cc1OC [Example 14, 1-Benzo[1,3]dioxol-5-ylmethyl-5,6-dimethoxy-3-(3,4,5-trimethoxy-phenylsulfanyl)-1H-indole-2-carboxylic acid]	–	–	–	31.6	3160	–
ET[1,3,11,15-A1a]: selective ETB agonist, linear analog (ASASSLMDKEAVYFAHLDIIW; Endothelin-1; UniProt P05305 53-73, looked up, variant C1A C3A C11A C15A)	–	–	–	–	–	caused vasorelaxation
COc1cccc(Sc2c(C(=O)O)n(Cc3ccc4c(c3)OCO4)c3cc4c(cc23)OCO4)c1 [Example 6, 5-Benzo[1,3]dioxol-5-ylmethyl-7-(3-methoxy-phenylsulfanyl)-5H-[1,3]dioxolo[4,5-f]indole-6-carboxylic acid]	–	84	710	–	–	–
COc1ccc(Sc2c(C(=O)O)n(Cc3ccc4c(c3)OCO4)c3cc4c(cc23)OCO4)cc1OC [Example 8, 5-Benzo [1,3]dioxo1-5-ylmethyl-7-(3,4-dimethoxyphenylsulfanyl)-5H-[1,3]dioxolo[4,5-f]indole-6-carboxylicacid]	–	39	170	316	316	–
CCCOc1ccc2c(Sc3cccc(OC)c3)c(C(=O)O)n(Cc3ccc4c(c3)OCO4)c2c1 [Example 10, 1-Benzo[1,3]dioxol-5-ylmethyl-3-(3-methoxy-phenylsulfanyl)-6-propoxy-1H-indole-2-carboxylic acid]	–	590	6700	–	–	–
COc1cccc(Sc2c(C(=O)O)n(Cc3ccc4c(c3)OCO4)c3cc(OC)c(OC)cc23)c1 [Example 2]	30	–	1100	100	–	–
COc1cc2c(Sc3ccc4c(c3)OCO4)c(C(=O)O)n(Cc3ccc4c(c3)OCO4)c2cc1OC [Example 17, 1-Benzo[1,3]dioxol-5-ylmethyl-3-(benzo[1,3]dioxol-5-ylsulfanyl)-5,6-dimethoxy-1H-indole-2-carboxylic acid]	631	–	–	50.1	–	–

From patent US5482960A, “Nonpeptide endothelin antagonists” (Warner-Lambert Company, priority 1994, dated 1996)
